According to ChEMBL document CHEMBL1201862, “PubChem BioAssay data set” (2004):
Activity calls are given as the source filed them.

Legend:
[1] = molecular target: T1, Orexin/Hypocretin receptor type 1 (Homo sapiens, UniProt O43613); experiment: (§1) Fluorescence-based cell-based high throughput dose response assay for antagonists of the orexin 1 receptor (OX1R; HCRTR1). [Related pubchem assays (depositor defined):AID434989, AID435008, AID463079, AID485270, AID492963, AID492964, AID492965, AID493232, AID504717, AID504718]; type: functional
T1 sequence (O43613 whole entry): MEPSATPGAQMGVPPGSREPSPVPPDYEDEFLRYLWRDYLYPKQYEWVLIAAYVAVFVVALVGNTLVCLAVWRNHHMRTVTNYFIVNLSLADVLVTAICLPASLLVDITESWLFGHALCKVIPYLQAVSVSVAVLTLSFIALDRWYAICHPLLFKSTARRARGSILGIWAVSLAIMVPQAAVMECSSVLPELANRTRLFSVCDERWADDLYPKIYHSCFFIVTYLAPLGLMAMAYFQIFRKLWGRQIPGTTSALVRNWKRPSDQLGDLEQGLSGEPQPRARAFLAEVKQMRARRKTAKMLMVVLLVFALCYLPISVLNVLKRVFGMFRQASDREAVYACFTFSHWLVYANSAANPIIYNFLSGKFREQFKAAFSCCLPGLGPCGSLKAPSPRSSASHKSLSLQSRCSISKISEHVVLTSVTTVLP

CHO-K1 = experiment: (§2) Counterscreen for antagonists of the orexin 1 receptor (OX1R; HCRTR1): Homogeneous time resolved fluorescence (HTRF)-based cell-based dose response assay to identify antagonists of the parental CHO-K1 cell line. [Related pubchem assays (depositor defined):AID434989, AID435008, AID463079, AID485270, AID492963, AID492964, AID492965, AID493232, AID504699, AID504701]; type: functional; conditions: Cricetulus griseus
[2] = as §2, with “Fluorescence-based” for “Homogeneous time resolved fluorescence (HTRF)-based”, “cell-based high throughput” for “cell-based”, “CHO” for “CHO-K1”; type: functional
[3] = molecular target: T1, Orexin/Hypocretin receptor type 1; experiment: as §1, with “Homogeneous Time Resolved Fluorescence (HTRF)-based” for “Fluorescence-based”; type: functional
[4] = Counterscreen for AddAB inhibitors: absorbance-based bacterial cell-based high throughput dose response assay for inhibitors of bacterial viability. [Related pubchem assays (depositor defined):AID435030, AID449728, AID449731, AID488942, AID488955, AID488956]; type: functional
[5] = molecular target: T2, Kappa-type opioid receptor (Homo sapiens, UniProt P41145); type: functional
Exodeoxyribonuclease V = molecular target: T3, Exodeoxyribonuclease V (Escherichia coli (strain K12), UniProt P04993+P07648+P08394); experiment: E. coli RecBCD inhibitors, dose response, counter-screen for AddAB inhibitor project, absorbance, V66 E. coli, mutant T4 phage (AID 492957); type: functional, cell-based, Escherichia coli str. K-12 substr. MG1655
T3 sequence (P04993 whole entry): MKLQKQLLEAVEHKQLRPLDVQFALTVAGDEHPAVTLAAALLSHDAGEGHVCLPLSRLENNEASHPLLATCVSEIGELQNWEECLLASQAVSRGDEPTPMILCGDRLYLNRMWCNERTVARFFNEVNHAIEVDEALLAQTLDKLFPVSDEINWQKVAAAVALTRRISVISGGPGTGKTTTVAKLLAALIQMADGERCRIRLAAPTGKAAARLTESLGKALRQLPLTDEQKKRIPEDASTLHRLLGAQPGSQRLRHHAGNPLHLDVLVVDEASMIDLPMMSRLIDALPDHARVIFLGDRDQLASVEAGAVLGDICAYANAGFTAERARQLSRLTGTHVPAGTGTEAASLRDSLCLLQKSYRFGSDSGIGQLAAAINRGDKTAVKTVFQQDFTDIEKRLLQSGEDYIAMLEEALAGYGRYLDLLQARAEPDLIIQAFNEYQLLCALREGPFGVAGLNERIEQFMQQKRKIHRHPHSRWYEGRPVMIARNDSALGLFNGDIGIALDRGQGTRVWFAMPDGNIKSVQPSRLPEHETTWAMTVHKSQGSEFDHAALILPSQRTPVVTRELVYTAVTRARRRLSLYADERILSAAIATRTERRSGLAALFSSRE
T3 sequence (P07648 whole entry): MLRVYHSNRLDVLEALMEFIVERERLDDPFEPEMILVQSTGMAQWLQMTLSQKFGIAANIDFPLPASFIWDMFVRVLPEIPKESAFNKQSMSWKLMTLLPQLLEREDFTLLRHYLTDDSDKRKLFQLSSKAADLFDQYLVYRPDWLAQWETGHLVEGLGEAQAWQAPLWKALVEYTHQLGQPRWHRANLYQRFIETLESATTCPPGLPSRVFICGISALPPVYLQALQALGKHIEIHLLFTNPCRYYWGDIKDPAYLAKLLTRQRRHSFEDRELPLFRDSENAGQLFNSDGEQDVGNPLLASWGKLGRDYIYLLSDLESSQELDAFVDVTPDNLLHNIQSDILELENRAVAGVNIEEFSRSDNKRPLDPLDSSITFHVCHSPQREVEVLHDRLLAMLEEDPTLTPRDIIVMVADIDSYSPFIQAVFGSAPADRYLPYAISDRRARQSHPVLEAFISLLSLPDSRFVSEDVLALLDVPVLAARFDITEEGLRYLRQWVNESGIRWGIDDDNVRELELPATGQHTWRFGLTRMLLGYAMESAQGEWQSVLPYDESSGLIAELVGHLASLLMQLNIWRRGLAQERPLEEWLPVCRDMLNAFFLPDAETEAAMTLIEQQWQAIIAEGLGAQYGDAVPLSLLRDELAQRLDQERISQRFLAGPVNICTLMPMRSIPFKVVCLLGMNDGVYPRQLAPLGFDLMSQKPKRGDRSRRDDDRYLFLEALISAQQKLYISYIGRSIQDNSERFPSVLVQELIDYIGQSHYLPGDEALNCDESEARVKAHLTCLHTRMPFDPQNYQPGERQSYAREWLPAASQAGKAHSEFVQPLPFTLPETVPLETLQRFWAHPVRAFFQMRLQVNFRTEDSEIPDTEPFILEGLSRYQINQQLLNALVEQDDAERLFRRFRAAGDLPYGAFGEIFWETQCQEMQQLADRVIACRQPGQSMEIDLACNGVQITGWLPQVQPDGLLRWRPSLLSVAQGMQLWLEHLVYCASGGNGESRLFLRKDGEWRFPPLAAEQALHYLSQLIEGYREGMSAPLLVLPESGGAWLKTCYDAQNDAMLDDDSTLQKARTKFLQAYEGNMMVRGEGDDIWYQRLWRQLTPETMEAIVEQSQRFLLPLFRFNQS
T3 sequence (P08394 whole entry): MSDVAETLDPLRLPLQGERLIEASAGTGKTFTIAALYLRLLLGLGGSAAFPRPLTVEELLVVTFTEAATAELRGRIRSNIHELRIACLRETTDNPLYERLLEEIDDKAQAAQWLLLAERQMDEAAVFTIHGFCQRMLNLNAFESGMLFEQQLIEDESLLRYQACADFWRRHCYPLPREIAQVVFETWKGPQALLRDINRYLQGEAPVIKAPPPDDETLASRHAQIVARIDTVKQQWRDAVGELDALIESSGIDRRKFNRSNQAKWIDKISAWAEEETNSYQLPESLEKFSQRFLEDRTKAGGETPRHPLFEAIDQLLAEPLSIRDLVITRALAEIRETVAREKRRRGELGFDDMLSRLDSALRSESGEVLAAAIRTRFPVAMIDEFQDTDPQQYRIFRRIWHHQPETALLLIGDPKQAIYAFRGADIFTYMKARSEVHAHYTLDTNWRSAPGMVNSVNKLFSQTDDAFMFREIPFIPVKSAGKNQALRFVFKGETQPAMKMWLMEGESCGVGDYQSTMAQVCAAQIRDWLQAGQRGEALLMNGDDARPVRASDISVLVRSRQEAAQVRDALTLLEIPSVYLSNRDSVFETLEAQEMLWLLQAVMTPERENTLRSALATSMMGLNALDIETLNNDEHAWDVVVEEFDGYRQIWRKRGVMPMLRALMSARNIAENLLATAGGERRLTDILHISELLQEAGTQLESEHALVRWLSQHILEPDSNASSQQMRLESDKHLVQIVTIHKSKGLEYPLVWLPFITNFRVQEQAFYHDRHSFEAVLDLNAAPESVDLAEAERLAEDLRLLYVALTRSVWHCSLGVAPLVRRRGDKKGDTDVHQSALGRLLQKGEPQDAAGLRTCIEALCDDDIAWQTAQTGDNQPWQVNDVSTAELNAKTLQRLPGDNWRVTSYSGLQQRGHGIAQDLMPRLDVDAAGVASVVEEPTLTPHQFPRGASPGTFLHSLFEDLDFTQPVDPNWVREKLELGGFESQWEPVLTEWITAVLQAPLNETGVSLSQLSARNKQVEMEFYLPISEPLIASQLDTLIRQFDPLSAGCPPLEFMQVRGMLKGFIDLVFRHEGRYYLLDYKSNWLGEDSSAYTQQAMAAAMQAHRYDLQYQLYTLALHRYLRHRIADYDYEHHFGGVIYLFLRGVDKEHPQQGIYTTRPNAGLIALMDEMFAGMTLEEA

[6] = molecular target: T2, Kappa-type opioid receptor; type: functional; remark: listed apart in the source
HEK293 = experiment: inhibitors of LMP1-driven NF-kB reporter, dose response, cell-based, HEK293, luciferase, cherry-pick (AID 588343); type: functional; conditions: Homo sapiens
Beta-galactosidase [7] = molecular target: T4, Beta-galactosidase (Escherichia coli, UniProt Q8VNN2); type: functional
Coagulation factor XII = molecular target: T5, Coagulation factor XII (Homo sapiens, UniProt P00748); type: functional;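 also: activated factor XIIa alpha cleaving a fluorogenic AMC peptide substrate; inhibitor potency from loss of enzyme activity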
T5 sequence (P00748 whole entry): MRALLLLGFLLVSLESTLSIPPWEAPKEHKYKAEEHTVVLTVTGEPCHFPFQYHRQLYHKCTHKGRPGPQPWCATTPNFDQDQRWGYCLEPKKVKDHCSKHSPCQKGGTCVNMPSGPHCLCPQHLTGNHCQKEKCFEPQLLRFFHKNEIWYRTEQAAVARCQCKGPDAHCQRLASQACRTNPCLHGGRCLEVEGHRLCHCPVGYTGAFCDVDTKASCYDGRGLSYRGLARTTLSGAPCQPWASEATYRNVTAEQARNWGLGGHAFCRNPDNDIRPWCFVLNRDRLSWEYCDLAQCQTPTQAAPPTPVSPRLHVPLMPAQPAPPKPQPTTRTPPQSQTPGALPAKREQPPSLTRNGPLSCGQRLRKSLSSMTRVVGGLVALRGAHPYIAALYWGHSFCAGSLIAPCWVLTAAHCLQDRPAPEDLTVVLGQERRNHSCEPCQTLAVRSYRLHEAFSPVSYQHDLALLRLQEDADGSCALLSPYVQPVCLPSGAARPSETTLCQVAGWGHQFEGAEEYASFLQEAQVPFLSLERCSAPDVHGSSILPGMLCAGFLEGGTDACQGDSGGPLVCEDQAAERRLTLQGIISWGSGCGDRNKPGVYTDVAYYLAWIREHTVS

Cytochrome P450 2D6 = Cytochrome P450 2D6 (Homo sapiens, UniProt P10635);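 also: CYP2D6 member of a cytochrome P450 panel assay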
SUMO-activating enzyme = SUMO-activating enzyme (Homo sapiens, UniProt Q9UBT2); experiment: SUMOylation inhibitor hit validation, confirmation, SUMOylation inhibitor project, biochemical, AlphaScreen (AID 2018); type: functional
Beta-galactosidase [8] = molecular target: T4, Beta-galactosidase; experiment: beta-galactosidase enzyme inhibitors and activators, dose response, artefact control for CCR6 antagonist project, biochemical, E. coli enzyme, set 3 (AID 504712); type: functional
Streptococcus = experiment: Group A Streptococcus viability loss, dose response, counter-screen for streptokinase expression inhibitor project, luminescence, BacTiterGlo (AID 1915); type: functional, organism-based;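 also: potency for reduction of bacterial viability or growth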
[9] = tested on: Streptococcus sp. 'group A'; experiment: growth inhibition of control SK(-) GAS strain, dose response, counter-screen for streptokinase expression inhibitor project, luminescence, kanamycin, BacTiterGlo, confirmation (AID 1900); type: functional, organism-based
[10] = molecular target: T6, Calpain-2 catalytic subunit (Sus scrofa, UniProt P43367); experiment: pig calpain II inhibitor potency, dose response, biochemical, fluorogenic peptide substrate (AID 1420); type: functional
T6 sequence (P43367 whole entry): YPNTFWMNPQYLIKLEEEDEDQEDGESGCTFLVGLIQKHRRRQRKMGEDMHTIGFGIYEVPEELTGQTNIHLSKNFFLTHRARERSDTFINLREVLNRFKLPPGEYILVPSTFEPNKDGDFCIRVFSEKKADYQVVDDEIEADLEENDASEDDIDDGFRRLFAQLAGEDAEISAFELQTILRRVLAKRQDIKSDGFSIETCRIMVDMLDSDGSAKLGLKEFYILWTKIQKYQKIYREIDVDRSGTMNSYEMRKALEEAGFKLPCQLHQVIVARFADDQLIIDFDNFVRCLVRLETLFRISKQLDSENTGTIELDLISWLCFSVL

T4 sequence (Q8VNN2 whole entry): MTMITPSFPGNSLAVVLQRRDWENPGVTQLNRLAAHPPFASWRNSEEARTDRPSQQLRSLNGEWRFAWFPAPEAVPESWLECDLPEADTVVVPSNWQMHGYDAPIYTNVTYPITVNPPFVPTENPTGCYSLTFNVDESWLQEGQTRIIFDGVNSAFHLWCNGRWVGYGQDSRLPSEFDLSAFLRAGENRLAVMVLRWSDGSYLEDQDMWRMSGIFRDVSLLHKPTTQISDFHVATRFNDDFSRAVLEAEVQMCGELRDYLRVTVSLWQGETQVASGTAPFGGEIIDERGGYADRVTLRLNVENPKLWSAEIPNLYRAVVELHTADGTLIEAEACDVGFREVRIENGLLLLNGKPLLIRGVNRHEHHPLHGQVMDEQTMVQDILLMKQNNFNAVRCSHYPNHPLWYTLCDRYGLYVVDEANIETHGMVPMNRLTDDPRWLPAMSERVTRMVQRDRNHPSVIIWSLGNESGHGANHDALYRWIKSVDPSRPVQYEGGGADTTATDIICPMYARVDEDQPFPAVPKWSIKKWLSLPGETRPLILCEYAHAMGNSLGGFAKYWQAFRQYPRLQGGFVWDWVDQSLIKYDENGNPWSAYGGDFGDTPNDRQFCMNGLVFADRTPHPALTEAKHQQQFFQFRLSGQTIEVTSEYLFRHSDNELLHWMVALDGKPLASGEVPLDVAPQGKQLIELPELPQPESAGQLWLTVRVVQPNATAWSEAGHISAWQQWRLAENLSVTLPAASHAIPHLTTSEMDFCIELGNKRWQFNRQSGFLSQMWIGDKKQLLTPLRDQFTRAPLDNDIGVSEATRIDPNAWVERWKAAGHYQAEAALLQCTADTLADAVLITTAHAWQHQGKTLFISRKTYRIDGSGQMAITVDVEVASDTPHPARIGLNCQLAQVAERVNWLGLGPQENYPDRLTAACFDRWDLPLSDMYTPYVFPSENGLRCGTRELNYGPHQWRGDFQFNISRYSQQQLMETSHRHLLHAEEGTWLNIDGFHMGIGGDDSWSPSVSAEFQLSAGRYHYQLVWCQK
T2 sequence (P41145 whole entry): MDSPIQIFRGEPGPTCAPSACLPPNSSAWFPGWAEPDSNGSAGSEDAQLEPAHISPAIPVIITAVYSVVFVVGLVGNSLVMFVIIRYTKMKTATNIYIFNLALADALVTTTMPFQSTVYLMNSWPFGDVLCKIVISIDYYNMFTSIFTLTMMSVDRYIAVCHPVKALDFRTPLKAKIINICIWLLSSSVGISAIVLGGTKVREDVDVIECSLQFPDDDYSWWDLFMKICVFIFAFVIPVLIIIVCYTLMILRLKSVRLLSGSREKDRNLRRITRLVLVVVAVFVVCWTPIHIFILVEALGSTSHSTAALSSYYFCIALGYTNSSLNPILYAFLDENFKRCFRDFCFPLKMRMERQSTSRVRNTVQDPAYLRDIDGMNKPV
Sequence of SUMO-activating enzyme (Q9UBE0 whole entry): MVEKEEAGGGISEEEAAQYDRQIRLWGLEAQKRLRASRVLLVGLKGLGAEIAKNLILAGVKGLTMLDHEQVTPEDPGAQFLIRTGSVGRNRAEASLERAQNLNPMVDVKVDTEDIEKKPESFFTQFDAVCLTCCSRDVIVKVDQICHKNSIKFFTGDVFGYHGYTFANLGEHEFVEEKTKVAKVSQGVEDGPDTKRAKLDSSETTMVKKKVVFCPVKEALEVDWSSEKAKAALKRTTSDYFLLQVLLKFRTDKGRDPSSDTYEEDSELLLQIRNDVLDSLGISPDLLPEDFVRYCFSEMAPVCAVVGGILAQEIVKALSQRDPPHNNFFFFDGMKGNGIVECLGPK
Sequence of SUMO-activating enzyme (Q9UBT2 whole entry): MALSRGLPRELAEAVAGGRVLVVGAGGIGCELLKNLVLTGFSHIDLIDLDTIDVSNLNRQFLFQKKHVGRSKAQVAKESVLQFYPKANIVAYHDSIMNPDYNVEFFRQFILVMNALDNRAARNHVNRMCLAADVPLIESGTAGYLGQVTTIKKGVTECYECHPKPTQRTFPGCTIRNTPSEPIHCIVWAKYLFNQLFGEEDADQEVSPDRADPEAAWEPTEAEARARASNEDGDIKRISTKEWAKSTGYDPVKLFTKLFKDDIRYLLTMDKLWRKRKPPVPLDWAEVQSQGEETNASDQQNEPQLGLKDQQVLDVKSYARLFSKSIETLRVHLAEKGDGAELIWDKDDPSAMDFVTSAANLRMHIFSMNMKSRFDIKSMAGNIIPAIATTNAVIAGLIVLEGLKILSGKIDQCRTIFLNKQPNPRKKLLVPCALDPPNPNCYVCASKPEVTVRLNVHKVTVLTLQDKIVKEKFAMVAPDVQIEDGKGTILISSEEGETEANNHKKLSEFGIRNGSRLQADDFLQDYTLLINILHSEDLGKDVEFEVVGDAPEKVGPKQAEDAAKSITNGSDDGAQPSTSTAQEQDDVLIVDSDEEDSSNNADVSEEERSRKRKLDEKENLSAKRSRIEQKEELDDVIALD
Sequence of Cytochrome P450 2D6 (P10635 whole entry): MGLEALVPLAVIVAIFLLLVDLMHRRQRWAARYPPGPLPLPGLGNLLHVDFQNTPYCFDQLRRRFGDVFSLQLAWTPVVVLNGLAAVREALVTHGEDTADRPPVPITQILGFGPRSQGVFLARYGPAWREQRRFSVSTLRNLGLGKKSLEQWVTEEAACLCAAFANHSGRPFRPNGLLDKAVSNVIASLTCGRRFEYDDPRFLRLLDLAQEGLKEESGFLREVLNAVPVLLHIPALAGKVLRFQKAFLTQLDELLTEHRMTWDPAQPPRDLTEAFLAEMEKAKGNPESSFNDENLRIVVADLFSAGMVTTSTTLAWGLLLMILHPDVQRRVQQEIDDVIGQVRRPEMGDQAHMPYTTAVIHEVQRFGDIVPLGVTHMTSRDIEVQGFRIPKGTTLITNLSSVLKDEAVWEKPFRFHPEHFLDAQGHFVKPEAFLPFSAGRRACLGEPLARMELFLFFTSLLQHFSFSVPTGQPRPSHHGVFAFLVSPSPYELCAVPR

CC(C)n1c(=O)[nH][nH]c1=S
IC50 [1]: 34.4 µM (inactive) | IC50 (CHO-K1): > 66.2 µM (inactive) | IC50 [2]: > 49.8 µM (inactive) | IC50 [3]: 7.04 µM (active)

COc1ccc(CNC(=O)COC(=O)[C@H](Cc2c[nH]c3ccccc23)NC(=O)c2cccs2)cc1
IC50 [1]: 13.1 µM (inactive) | IC50 (CHO-K1): > 66.2 µM (inactive) | IC50 [2]: 12.8 µM (inactive) | IC50 [3]: 26.9 µM (inactive)

NC(=S)N/N=C/c1ncc(C(F)(F)F)cc1Cl
IC50 [4]: > 119 µM (inactive) | IC50 [5]: 22.2 µM (inactive) | IC50 (Exodeoxyribonuclease V): > 119 µM (inactive) | IC50 [6]: > 32 µM | AC50 (HEK293): 10.2 µM (active) | EC50 (Beta-galactosidase [7]): > 31.5 µM (inactive)

CN(C)S(=O)(=O)Oc1ccsc1C(=O)Nc1cccc(Cl)c1
IC50 (Coagulation factor XII): > 50 µM (inactive) | AC50 (Cytochrome P450 2D6): 25.1 µM (inconclusive)

Cc1cc(C)c(C#N)c(SCc2ccc([N+](=O)[O-])cc2)n1
IC50 (Coagulation factor XII): > 50 µM (inactive)

COc1ccc(C2C(C(=O)Nc3ccccc3OC)=C(C)Nc3ncnn32)cc1 (configuration not stated)
IC50 (Coagulation factor XII): > 50 µM (inactive)

COc1ccc(-c2nc3cc([N+](=O)[O-])ccc3[nH]2)cc1
IC50 (SUMO-activating enzyme): 35 µM (active)

N=C1SCC(=O)N1c1ncc(Cc2ccc(F)cc2)s1
IC50 (Beta-galactosidase [8]): > 66.6 µM (inactive) | IC50 [5]: 7.35 µM (active) | EC50 (Streptococcus): 2.21 µM (active) | IC50 [6]: > 32 µM | EC50 [9]: 0.949 µM (active) | EC50 (Beta-galactosidase [7]): > 31.5 µM (inactive)

Cc1ccsc1C(=O)NCCC(c1ccccc1)c1ccccc1
IC50 (Coagulation factor XII): > 50 µM (inactive) | IC50 [10]: 0.719 µM (not active)
